Experimental data: EP0121856A2, “Use of pyrazolone derivatives against the growth of tumour cells and their metastases, medicaments therefor and their preparation” (BAYER AG, priority 1983, dated 1984)

Experiments:
[1] = antithrombotic effect (thrombosis prophylaxis) compared with Nafazatrom; format: in vivo; settings: for antithrombotischer Effekt: at 100-fold dose increase compared with Nafazatrom
[2] = system: B-16a Tumorzellen; assay: partial metastasis model: tail vein injection of B-16a tumour cells, oral treatment 3 days before and 2 days after tumour injection (Beispiel 2 and 3); format: in vivo, C57BL/6J-Mäuse; settings: for Metastasenpunkte: score 1-10, mean ± S, n = 10; for Metastasenindex: treated / control points
Method: (§1) Syngeneische C57BL/6J-Mäuse wurden während eines Zeitraumes von drei Tagen mit 0,005 mg/kg bis 5 mg/kg der beiden Substanzen in 0,2 ml 0,5 % Tylose peroral behandelt. Kontrolltiere erhielten täglich 0,2 ml 0,5 % Tylose. Am vierten Tag wurde den vorbehandelten Mäusen und Kontrollmäusen ein Suspension von 5 x 10^4 B-16a Tumorzellen über die Schwanzvene injiziert. Die Kontrollmäuse und die behandelten Mäuse wurden unter identischen Bedingungen der Temperatur, Lichteinwirkungsdauer, Ernährung etc. gehalten. Die Mäuse wurden 24 Tage nach erfolgter Schwanzvenen-Injektion getötet, und ihre Lungengewebe wurden untersucht. Der Grad der Metastasierung wurde nach Zahl und Größe der makroskopisch sichtbaren Metastasen mit Punktzahlen von 1 - 10 bewertet, welche die Relation zwischen Metastasenbedeckter und - freier Organfläche ausdrücken. Dabei werden die Punktzahlen nach folgenden Rahmenkriterien vergeben: 1 = 1 - 2 gerade erkennbare Metastasen, 5 = etwa 50 % der Organoberfläche ist von Metastasen bedeckt, 10 = fast keine normale Organoberfläche sichtbar.
5 mg des jeweiligen Pyrazolonderivats wurden in 0,5 % Ty-lose aufgenommen und dann durch Behandlung mit Ultraschall (30 sec) gelöst. Die endgültige Konzentration der Substanzen wurde durch Verdünnung der Lösungen mit 0,5 % Tylose eingestellt.
(§2) Syngeneische C57BL/6J-Mäuse wurden während eines Zeitraumes von drei Tagen vor der Tumorinjektion und 2 Tagen nach der Tumorinjektion täglich mit 0,005 mg/kg bis 5 mg/kg der beiden Substanzen in 0,2 ml 0,5 % Tylose peroral behandelt. Kontrolltiere erhielten 0,2 ml 0,5 % Tylose. Am vierten Tag wurde den. vorbehandelten Mäusen und Kontrollmäusen eine Suspension von 5 x 10^4 B-16a Tumorzellen über die Schwanzvene injiziert.
20 mg des jeweiligen Pyrazolonderivats wurden in 0,5 % Tylose aufgenommen und dann durch Behandlung mit Ultraschall (30 sec) gelöst. Die endgültige Konzentration der Substanzen wurde durch Verdünnung der Lösungen mit 0,5 % Tylose eingestellt.
as §2, with “Syngeneische Tiere” for “Syngeneische C57BL/6J-Mäuse”, “mit 2 mg” for “mit 0,005 mg/kg”, “bis 200” for “bis 5”, “der” for “der beiden”, “wurde den” for “wurde den.”, “und Kontrolltieren” for “und Kontrollmäusen”

[3] = system: B-16a Tumorzellen; assay: partial metastasis model: tail vein injection of B-16a tumour cells, oral pretreatment for three days (Beispiel 1); format: in vivo, C57BL/6J-Mäuse; settings: 3 days before tail vein injection; for Metastasenpunkte: lungs 24 days after injection, score 1-10, mean ± S, n = 10; for Metastasenindex: treated group points / control group points
Method: Es wurden dieselben Tumor-Zellinien wie in EP-A 0 062 319 verwendet und auf die gleiche Weise in vivo gehalten. ;
Tumorzellen wurden dann aseptisch aus den Wirtsmäusen entnommen und unter Anwendung sequenzieller Collagenase-Verdauung dispergiert, wie unten beschrieben. Die entnommenen Tumoren wurden in Würfel (4 x 4 mm) zerteilt, und das gewürfelte Gewebe wurde auf 6 bis 8 sterile Polycarbonat-Erlenmeyerkolben aufgeteilt (etwa 500 mg/Kolben). Ein Anteil von 10 ml einer "Tumordispersionslösung" (TDS) wurde in jeden Kolben hinzugefügt.
Das gewürfelte Gewebe in der TDS wurde dann unter Luft in einem Dubnoff-Stoffwechsel-Schüttler (90 Schwingungen/min) dispergiert (30 min; 37°C). Die überstände wurden durch ein Seihtuch in sterile 50 ml-Rundboden-Zentrifugenröhrchen auf Polycarbonat gesammelt und 10 min (25°C) mit 900 U/min(100 g) in einem Sorvall SS-34 -Rotor zentrifugiert. Nach dem Zentrifugieren wurde die überstehende Fraktion verworfen. Das erhaltene zelluläre Material (Pellets) wurde zweimal mit MEM-Lösung gewaschen, wieder in MEM suspendiert und bei 4°C gehalten.
Zu dem verbleibenden gewürfelten Gewebe wurde ein Anteil von 10 ml TDS hinzugefügt, und das Gewebe wurde in einem Stoffwechselschüttler inkubiert, wie oben beschrieben, außer daß die Zeitdauer 60 min betrug. Das Zentrifugieren wurde wiederholt, und die wieder suspendierten Zellen wurden vereinigt.
(§3) Wie bereits weiter oben festgestellt wurde, ist die Metastase eine einzelne Erscheinung, die durch eine Reihe komplizierter Vorgänge verursacht wird. Gegenwärtig finden zwei "Modell"-Systeme für die Untersuchung der in vivo-Metastase verbreitete Anwendung. Das erste Modellsystem umfaßt die subkutante Injektion der Tumorzellen in das Tier. Die subkutante Injektion der Tumorzellen und anschließende Entwicklung eines Primärtumors, gefolgt von spontaner Metastase, wird als "volle" Metastase betrachtet. Ein anderes Modellsystem umfaßt die Injektion der Tumorzellen durch die Schwanzvene. In Anbetracht der Komplexität der Metastase gilt die Schwanzvenen-Injektion nur als partielles Modellsystem, da es nur die Vorgänge während des letzten Teils der Metastase wiedergibt. Das Schwanzvenen-Modellsystem gilt jedoch andererseits als außerordentlich günstig im Hinblick auf eine Standardisierung der Versuchsbedindungen Lvgl. "Methods in Cancer Research", Kapitel VII, Academic Press, Inc., 19787.
5 mg des jeweiligen Pyrazolonderivats wurden in 0,5 % Tylose aufgenommen und dann durch Behandlung mit Ultraschall (30 sec) gelöst. Die endgültige Konzentration der Substanzen wurde durch Verdünnung der Lösungen mit 0,5 % Tylose eingestellt.
as §1

[4] = system: B-16a-Zellen; assay: full metastasis model: subcutaneous injection of B-16a cells, oral treatment for 27 days, metastatic lung nodules (Beispiel 4); format: in vivo, C57BL/6J-Mäuse; settings: for Metastasenpunkte: lungs at 28 days; for Metastasenindex: treated / control points
Excerpt: as §3
Die Wirkung der Verabreichung der Pyrazolon-Verbindungen über einen längeren Zeitraum hinweg auf die Zahl der'metastatischen Lungen-Kolonien des B-16a Melanoms wurde wie nachstehend für Verbindung A beschrieben bestimmt.
10 mg Verbindung A wurden in 0,5 % Tylose aufgenommen und dann durch Behandlung mit Ultraschall (30 sec) gelöst. Die endgültige Konzentration der Substanz wurde durch Verdünnung der Lösung mit 0,5 % Tylose eingestellt. Die Substanz wurde jeden Tag neu gelöst.
Syngeneische C57BL/6J-Mäusen wurde eine Suspension von 1,0 x 10^5 B-16a-Zellen subkutan injiziert, die wie vorstehend beschrieben hergestellt wurde. Vom Tage nach der Tumorzell-Injektion ab erhielten die Mäuse 27 Tage peroral eine tägliche Einzeldosis von 0 bis 100 mg/kg der Pyrazolon-Verbindung. Die Kontroll-Mäuse und die behandelten Mäuse wurden unter identischen Bedingungen der Temperatur, Lichteinwirkungsdauer, Ernährung etc. gehalten. Die Mäuse wurden nach 28 Tagen getötet und die Zahl und Größe der metastatischen Knötchen in der Lunge bestimmt.

[5] = 0,5 mg/kg peroral daily for 27 days after s.c. tumour cell injection
[6] = 5 mg/kg peroral daily for 27 days after s.c. tumour cell injection
[7] = 25 mg/kg peroral daily for 27 days after s.c. tumour cell injection
[8] = 50 mg/kg peroral daily for 27 days after s.c. tumour cell injection
[9] = 75 mg/kg peroral daily for 27 days after s.c. tumour cell injection
[10] = 100 mg/kg peroral daily for 27 days after s.c. tumour cell injection

CCCC1=NN(CCOc2ccc3ccccc3c2)C(=O)C1 [3-n-Propyl-]
antithrombotischer Effekt [1]: kein antithrombotischer Effekt feststellbar

CCCCCCCCCCCCCCCCCC1=NN(c2ccc(Oc3ccccc3)c(S(=O)(=O)O)c2)C(=O)C1 [Verbindung F]
Metastasenpunkte ([2]; 2 mg/kg peroral daily): 2,8±1,0 | Metastasenindex ([2]; 2 mg/kg peroral daily): 0,68 | Metastasenpunkte ([2]; 20 mg/kg peroral daily): 3,0±1,1 | Metastasenindex ([2]; 20 mg/kg peroral daily): 0,73 | Metastasenpunkte ([2]; 200mg/kg peroral daily): 2,6±1,0 | Metastasenindex ([2]; 200mg/kg peroral daily): 0,63

CC1=NN(Cc2ccoc2)C(=O)C1 [Verbindung C]
Metastasenpunkte ([2]; 0,05 mg/kg peroral daily): 4,3±1,7 | Metastasenpunkte ([2]; 0,5 mg/kg peroral daily): 4,7±2,1 | Metastasenindex ([2]; 0,05 mg/kg peroral daily): 0,72 | Metastasenindex ([2]; 0,5 mg/kg peroral daily): 0,78 | Metastasenpunkte ([2]; 0,005 mg/kg peroral daily): 5,2±2,0 | Metastasenpunkte ([2]; 5 mg/kg peroral daily): 5,3±2,0 | Metastasenindex ([2]; 0,005 mg/kg peroral daily): 0,87 | Metastasenindex ([2]; 5 mg/kg peroral daily): 0,88

CC1=NN(CCOc2ccc3ccccc3c2)C(=O)C1(C)C [Verbindung B]
Metastasenpunkte ([3]; 0,05 mg/kg peroral): 4,2±2,6 | Metastasenpunkte ([3]; 0,5 mg/kg peroral): 2,6±0,8 | Metastasenindex ([3]; 0,05 mg/kg peroral): 0,60 | Metastasenindex ([3]; 0,5 mg/kg peroral): 0,37 | Metastasenpunkte ([3]; 0,005 mg/kg peroral): 4,9±2,2 | Metastasenpunkte ([3]; 5 mg/kg peroral): 4,5±2,3 | Metastasenindex ([3]; 0,005 mg/kg peroral): 0.70 | Metastasenindex ([3]; 5 mg/kg peroral): 0,64

CC1=NN(C(C)c2ccsc2)C(=O)C1 (stereo not shown) [Verbindung D]
Metastasenpunkte ([2]; 0,05 mg/kg peroral daily): 3,8±1,8 | Metastasenpunkte ([2]; 0,5 mg/kg peroral daily): 3,6±1,7 | Metastasenindex ([2]; 0,05 mg/kg peroral daily): 0,63 | Metastasenindex ([2]; 0,5 mg/kg peroral daily): 0,60 | Metastasenpunkte ([2]; 0,005 mg/kg peroral daily): 4,7±1,9 | Metastasenpunkte ([2]; 5 mg/kg peroral daily): 3,8±1,4 | Metastasenindex ([2]; 0,005 mg/kg peroral daily): 0,78 | Metastasenindex ([2]; 5 mg/kg peroral daily): 0,63

CC1=NN(CCOc2ccc3ccccc3c2)C(=O)C1C (stereo not shown) [3,4-Dimethyl-Derivat]
antithrombotischer Effekt [1]: kein antithrombotischer Effekt feststellbar

CC1=NN(CCOc2ccc3ccccc3c2)C(=O)C1C (stereo not shown) [Verbindung A]
Metastasenpunkte [4, 5]: 2,9±2,6 | Metastasenindex [4, 5]: 0,66 | Metastasenpunkte [4, 6]: 2,7±2,0 | Metastasenindex [4, 6]: 0,61 | Metastasenpunkte [4, 7]: 2,2±1,6 | Metastasenindex [4, 7]: 0,50 | Metastasenpunkte [4, 8]: 2,1±1,5 | Metastasenindex [4, 8]: 0,48 | Metastasenpunkte [4, 9]: 1,3±1,4 | Metastasenindex [4, 9]: 0,30 | Metastasenpunkte [4, 10]: 2,8±1,7 | Metastasenindex [4, 10]: 0,64 | Metastasenpunkte ([3]; 0,05 mg/kg peroral): 5,3±1,5 | Metastasenpunkte ([3]; 0,5 mg/kg peroral): 4,1±1,4 | Metastasenindex ([3]; 0,05 mg/kg peroral): 0,76 | Metastasenindex ([3]; 0,5 mg/kg peroral): 0,59 | Metastasenpunkte ([3]; 0,005 mg/kg peroral): 2,6±1,1 | Metastasenpunkte ([3]; 5 mg/kg peroral): 2,3±1,2 | Metastasenindex ([3]; 0,005 mg/kg peroral): 0,37 | Metastasenindex ([3]; 5 mg/kg peroral): 0,33

CCC1=NN(CCOc2ccc3ccccc3c2)C(=O)C1 [Ethyl in der 3-Position des Nafazatroms]
Wirkung bei der Thromboseprophylaxe ([1]; fraction of the effect of Nafazatrom): 1/30

CC(C)C1=NN(CCOc2ccc3ccccc3c2)C(=O)C1 [3-Isopropyl-]
antithrombotischer Effekt [1]: kein antithrombotischer Effekt feststellbar

O=C1CC(Cc2ccccc2)=NN1CCOc1ccc2ccccc2c1 [3-Benzyl-]
antithrombotischer Effekt [1]: kein antithrombotischer Effekt feststellbar

COc1cc(N2N=C(N)CC2=O)ccc1C [Verbindung E]
Metastasenpunkte ([2]; 2 mg/kg peroral daily): 2,7±1,7 | Metastasenindex ([2]; 2 mg/kg peroral daily): 0,66 | Metastasenpunkte ([2]; 20 mg/kg peroral daily): 2,5±1,0 | Metastasenindex ([2]; 20 mg/kg peroral daily): 0,61 | Metastasenpunkte ([2]; 200mg/kg peroral daily): 2,7±1,5 | Metastasenindex ([2]; 200mg/kg peroral daily): 0,66
